{
  "source": "paper PMC5862592",
  "about": "“CDK8/19 inhibition induces premature G1/S transition and ATR-dependent cell death in prostate cancer cells” (Oncotarget, 2018)",
  "assay_in_all_cases": "biochemical",
  "design_in_all_cases": "KINOMEscan active site-directed competition binding assay (DiscoveRx), 456 kinases, per cent of control at 300 nM",
  "settings_in_all_cases": "read-out: Percent of Control (%)",
  "key": {"EGFR(G719S)": {"biological_target": "EGFR(G719S) (Homo sapiens, UniProt P00533, G719S)", "sequence (P00533 whole entry G719S)": "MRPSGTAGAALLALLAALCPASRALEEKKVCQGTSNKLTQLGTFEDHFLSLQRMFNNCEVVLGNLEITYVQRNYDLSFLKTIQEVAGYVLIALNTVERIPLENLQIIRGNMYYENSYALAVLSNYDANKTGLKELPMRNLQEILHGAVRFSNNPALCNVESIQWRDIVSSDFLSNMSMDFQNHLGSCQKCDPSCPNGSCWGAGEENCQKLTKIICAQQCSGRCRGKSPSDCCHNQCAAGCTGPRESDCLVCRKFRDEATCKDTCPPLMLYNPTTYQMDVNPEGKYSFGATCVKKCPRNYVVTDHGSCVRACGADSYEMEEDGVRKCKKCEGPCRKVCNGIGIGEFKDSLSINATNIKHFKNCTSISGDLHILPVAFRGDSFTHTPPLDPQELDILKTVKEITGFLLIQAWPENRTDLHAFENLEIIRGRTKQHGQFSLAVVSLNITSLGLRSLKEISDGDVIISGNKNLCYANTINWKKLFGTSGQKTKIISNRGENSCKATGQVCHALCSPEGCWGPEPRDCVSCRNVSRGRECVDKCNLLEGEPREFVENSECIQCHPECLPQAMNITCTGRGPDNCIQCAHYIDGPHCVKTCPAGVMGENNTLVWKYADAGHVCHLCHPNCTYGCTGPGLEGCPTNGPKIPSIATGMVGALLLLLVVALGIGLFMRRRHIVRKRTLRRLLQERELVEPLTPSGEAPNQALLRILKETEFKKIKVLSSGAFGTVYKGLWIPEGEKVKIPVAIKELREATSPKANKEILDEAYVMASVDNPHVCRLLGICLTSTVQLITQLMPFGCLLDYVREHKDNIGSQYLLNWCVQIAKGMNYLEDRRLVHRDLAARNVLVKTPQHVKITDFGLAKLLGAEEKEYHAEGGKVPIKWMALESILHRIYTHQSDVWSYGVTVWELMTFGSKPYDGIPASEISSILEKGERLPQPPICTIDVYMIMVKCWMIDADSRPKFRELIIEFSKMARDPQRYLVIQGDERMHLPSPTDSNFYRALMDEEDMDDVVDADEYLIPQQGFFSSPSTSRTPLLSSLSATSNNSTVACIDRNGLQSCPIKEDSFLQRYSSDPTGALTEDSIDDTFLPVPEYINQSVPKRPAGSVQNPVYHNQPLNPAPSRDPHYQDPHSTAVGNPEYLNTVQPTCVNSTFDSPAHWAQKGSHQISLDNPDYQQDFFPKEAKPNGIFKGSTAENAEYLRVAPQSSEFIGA", "outline": "(§1)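 Kinase panel (456 enzymes) profiled by competitive displacement at the active site; compounds run at 300 nmol/L.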"}, "STK39": {"biological_target": "STK39 (Homo sapiens, UniProt Q9UEW8)", "outline": "as §1"}, "MYO3A": {"biological_target": "MYO3A (Homo sapiens, UniProt Q8NEV4)", "sequence (Q8NEV4 whole entry)": "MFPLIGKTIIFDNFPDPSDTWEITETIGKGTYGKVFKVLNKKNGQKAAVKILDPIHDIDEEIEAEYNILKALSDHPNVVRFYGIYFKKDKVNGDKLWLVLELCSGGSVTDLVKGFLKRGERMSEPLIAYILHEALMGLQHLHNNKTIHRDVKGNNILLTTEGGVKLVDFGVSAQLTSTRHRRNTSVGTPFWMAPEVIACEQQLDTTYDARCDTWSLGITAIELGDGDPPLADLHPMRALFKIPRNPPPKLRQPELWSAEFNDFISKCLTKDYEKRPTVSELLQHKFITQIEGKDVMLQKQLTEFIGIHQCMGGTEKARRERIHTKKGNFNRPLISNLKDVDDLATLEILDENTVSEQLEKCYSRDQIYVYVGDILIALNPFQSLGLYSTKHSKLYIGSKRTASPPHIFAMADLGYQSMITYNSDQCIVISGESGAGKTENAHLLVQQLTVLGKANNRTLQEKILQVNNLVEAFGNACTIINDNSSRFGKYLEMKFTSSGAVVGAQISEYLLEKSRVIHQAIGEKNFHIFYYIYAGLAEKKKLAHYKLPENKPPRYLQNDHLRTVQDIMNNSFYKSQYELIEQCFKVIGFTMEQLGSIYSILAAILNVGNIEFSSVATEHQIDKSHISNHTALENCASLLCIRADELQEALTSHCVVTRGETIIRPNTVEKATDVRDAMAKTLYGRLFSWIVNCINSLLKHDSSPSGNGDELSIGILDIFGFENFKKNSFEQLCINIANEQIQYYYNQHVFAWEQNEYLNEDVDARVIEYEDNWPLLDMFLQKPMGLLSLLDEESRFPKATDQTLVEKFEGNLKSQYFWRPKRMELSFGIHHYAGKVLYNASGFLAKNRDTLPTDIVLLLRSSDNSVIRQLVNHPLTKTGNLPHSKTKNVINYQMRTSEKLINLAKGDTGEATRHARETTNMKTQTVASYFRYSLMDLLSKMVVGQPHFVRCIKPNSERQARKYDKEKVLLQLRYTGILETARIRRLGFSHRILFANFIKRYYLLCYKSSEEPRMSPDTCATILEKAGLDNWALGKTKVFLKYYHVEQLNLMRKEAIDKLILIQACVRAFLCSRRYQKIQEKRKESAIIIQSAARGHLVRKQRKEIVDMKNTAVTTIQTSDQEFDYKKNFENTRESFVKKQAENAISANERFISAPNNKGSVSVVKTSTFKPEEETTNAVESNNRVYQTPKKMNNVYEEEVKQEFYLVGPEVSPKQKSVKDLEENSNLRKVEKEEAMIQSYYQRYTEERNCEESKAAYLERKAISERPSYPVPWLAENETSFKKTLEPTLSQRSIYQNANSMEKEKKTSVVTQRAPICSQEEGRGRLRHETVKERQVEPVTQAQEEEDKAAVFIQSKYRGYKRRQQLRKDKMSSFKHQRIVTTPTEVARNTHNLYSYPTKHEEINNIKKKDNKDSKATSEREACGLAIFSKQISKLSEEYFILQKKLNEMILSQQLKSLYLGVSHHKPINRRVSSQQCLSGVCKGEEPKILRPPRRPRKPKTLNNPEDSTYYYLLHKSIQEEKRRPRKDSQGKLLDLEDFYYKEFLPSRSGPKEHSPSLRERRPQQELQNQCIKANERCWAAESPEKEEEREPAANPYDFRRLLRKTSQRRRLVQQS", "outline": "as §1"}, "GCN2(Kin.Dom.2,S808G)": {"biological_target": "T1, GCN2(Kin.Dom.2,S808G) (Homo sapiens, UniProt Q9P2K8, S808G)", "T1 construct": "gene EIF2AK4; Kin.Dom.2", "outline": "as §1"}, "ITK": {"biological_target": "ITK (Homo sapiens, UniProt Q08881)", "outline": "as §1"}, "ACVRL1": {"biological_target": "ACVRL1 (Homo sapiens, UniProt P37023)", "outline": "as §1"}, "MST2": {"biological_target": "T2, MST2 (Homo sapiens, UniProt Q13188)", "T2 construct": "gene STK3", "outline": "as §1"}, "LATS2": {"biological_target": "LATS2 (Homo sapiens, UniProt Q9NRM7)", "outline": "as §1"}, "AKT3": {"biological_target": "AKT3 (Homo sapiens, UniProt Q9Y243)", "outline": "as §1"}, "MYO3B": {"biological_target": "MYO3B (Homo sapiens, UniProt Q8WXR4)", "outline": "as §1"}, "RIOK2": {"biological_target": "RIOK2 (Homo sapiens, UniProt Q9BVS4)", "sequence (Q9BVS4 whole entry)": "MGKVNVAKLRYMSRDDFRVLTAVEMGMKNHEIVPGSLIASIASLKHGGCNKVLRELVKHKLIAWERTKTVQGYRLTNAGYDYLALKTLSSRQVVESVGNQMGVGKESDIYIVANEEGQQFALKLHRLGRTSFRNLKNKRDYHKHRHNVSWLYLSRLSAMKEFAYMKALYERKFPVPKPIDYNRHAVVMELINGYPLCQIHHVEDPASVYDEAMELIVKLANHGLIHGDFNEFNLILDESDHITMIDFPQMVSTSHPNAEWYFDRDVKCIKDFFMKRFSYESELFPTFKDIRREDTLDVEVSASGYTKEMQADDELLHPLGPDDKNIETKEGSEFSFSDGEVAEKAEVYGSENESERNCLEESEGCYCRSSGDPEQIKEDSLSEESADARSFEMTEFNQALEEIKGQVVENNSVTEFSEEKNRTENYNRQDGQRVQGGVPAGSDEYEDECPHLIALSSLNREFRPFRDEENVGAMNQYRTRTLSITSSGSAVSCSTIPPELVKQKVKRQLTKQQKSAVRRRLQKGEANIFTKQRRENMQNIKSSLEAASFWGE", "outline": "as §1"}, "NEK9": {"biological_target": "NEK9 (Homo sapiens, UniProt Q8TD19)", "outline": "as §1"}, "[1]": {"biological_target": "T3, JAK2(JH1domain-catalytic) (Homo sapiens, UniProt O60674)", "T3 construct": "JH1domain-catalytic", "outline": "as §1"}, "PKAC-beta": {"biological_target": "T4, PKAC-beta (Homo sapiens, UniProt P22694)", "T4 construct": "gene PRKACB", "outline": "as §1"}, "PIP5K1A": {"biological_target": "PIP5K1A (Homo sapiens, UniProt Q99755)", "outline": "as §1"}, "STK35": {"biological_target": "STK35 (Homo sapiens, UniProt Q8TDR2)", "sequence (Q8TDR2 whole entry)": "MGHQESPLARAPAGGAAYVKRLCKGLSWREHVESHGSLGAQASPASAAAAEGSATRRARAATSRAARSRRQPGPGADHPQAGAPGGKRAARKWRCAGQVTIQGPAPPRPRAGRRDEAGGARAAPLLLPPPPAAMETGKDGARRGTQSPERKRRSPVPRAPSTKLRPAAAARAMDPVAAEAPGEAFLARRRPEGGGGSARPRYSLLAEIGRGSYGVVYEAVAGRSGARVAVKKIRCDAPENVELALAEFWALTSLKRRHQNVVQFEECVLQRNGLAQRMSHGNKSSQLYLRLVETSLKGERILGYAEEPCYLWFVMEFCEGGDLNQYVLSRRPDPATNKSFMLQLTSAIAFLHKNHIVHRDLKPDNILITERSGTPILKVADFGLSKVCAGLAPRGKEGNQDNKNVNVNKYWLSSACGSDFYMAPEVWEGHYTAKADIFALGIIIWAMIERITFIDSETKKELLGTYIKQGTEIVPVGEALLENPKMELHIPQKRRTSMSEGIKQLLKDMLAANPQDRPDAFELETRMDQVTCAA", "outline": "as §1"}, "IRAK1": {"biological_target": "IRAK1 (Homo sapiens, UniProt P51617)", "outline": "as §1"}, "DCAMKL3": {"biological_target": "T5, DCAMKL3 (Homo sapiens, UniProt Q9C098)", "T5 construct": "gene DCLK3", "outline": "as §1"}, "ASK2": {"biological_target": "T6, ASK2 (Homo sapiens, UniProt O95382)", "T6 construct": "gene MAP3K6", "outline": "as §1"}, "MAST1": {"biological_target": "MAST1 (Homo sapiens, UniProt Q9Y2H9)", "outline": "as §1"}, "AXL": {"biological_target": "AXL (Homo sapiens, UniProt P30530)", "outline": "as §1"}, "PIK3CD": {"biological_target": "PIK3CD (Homo sapiens, UniProt O00329)", "sequence (O00329 whole entry)": "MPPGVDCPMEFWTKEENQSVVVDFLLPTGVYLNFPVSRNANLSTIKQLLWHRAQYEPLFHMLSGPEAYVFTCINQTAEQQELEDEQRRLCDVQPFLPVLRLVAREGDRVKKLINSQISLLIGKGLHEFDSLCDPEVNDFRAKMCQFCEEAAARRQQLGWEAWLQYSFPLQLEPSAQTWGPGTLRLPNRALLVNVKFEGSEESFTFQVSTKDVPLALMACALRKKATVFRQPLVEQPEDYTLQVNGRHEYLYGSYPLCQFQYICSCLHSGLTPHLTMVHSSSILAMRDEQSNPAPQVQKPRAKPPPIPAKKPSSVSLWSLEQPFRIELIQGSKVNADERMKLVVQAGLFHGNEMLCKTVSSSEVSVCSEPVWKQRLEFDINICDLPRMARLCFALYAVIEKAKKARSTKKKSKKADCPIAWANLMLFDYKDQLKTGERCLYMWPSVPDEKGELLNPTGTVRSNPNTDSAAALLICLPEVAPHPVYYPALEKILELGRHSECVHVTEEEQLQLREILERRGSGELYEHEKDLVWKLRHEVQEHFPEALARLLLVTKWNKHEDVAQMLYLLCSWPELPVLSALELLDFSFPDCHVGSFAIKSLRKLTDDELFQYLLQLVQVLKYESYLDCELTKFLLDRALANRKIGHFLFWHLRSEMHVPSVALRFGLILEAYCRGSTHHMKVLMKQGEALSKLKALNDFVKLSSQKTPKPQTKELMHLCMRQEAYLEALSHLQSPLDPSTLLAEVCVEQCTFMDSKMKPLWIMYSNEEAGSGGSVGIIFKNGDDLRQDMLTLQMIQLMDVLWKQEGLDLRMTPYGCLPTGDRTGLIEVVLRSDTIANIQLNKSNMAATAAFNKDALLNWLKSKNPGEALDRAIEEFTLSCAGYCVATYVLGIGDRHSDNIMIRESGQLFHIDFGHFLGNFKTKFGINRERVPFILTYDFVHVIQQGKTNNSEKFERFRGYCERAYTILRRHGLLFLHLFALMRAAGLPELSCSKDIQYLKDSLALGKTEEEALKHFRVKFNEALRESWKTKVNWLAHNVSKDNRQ", "outline": "as §1"}},
  "note": "Read-outs that look alike come from different tables or passages of the source.",
  "data": [
    {"smiles": "O=C(/C=C/c1cnccc1-c1ccc(F)cc1)Nc1ccc(CCc2nnco2)cc1", "note": "[T-418, (2E)-3-(4-(4-fluorophenyl)pyridin-3-yl)-N-(4-(2-(1,3,4-oxadiazol-2-yl)ethyl)phenyl)acrylamide]", "values": [
      {"measurement": "remaining binding at 0.3 µM", "setting": "EGFR(G719S); sheet T-418", "value": 68, "unit": "%"},
      {"measurement": "remaining binding at 0.3 µM", "setting": "STK39; sheet T-418", "value": 100, "unit": "%"},
      {"measurement": "remaining binding at 0.3 µM", "setting": "MYO3A; sheet T-418", "value": 100, "unit": "%"},
      {"measurement": "remaining binding at 0.3 µM", "setting": "GCN2(Kin.Dom.2,S808G); sheet T-418", "value": 100, "unit": "%"},
      {"measurement": "remaining binding at 0.3 µM", "setting": "ITK; sheet T-418", "value": 100, "unit": "%"},
      {"measurement": "remaining binding at 0.3 µM", "setting": "ACVRL1; sheet T-418", "value": 77, "unit": "%"},
      {"measurement": "remaining binding at 0.3 µM", "setting": "MST2; sheet T-418", "value": 46, "unit": "%"},
      {"measurement": "remaining binding at 0.3 µM", "setting": "LATS2; sheet T-418", "value": 100, "unit": "%"},
      {"measurement": "remaining binding at 0.3 µM", "setting": "AKT3; sheet T-418", "value": 100, "unit": "%"},
      {"measurement": "remaining binding at 0.3 µM", "setting": "MYO3B; sheet T-418", "value": 52, "unit": "%"},
      {"measurement": "remaining binding at 0.3 µM", "setting": "RIOK2; sheet T-418", "value": 99, "unit": "%"},
      {"measurement": "remaining binding at 0.3 µM", "setting": "NEK9; sheet T-418", "value": 100, "unit": "%"},
      {"measurement": "remaining binding at 0.3 µM", "setting": "[1]; sheet T-418", "value": 100, "unit": "%"},
      {"measurement": "remaining binding at 0.3 µM", "setting": "PKAC-beta; sheet T-418", "value": 88, "unit": "%"},
      {"measurement": "remaining binding at 0.3 µM", "setting": "PIP5K1A; sheet T-418", "value": 94, "unit": "%"},
      {"measurement": "remaining binding at 0.3 µM", "setting": "STK35; sheet T-418", "value": 98, "unit": "%"},
      {"measurement": "remaining binding at 0.3 µM", "setting": "IRAK1; sheet T-418", "value": 100, "unit": "%"},
      {"measurement": "remaining binding at 0.3 µM", "setting": "DCAMKL3; sheet T-418", "value": 83, "unit": "%"},
      {"measurement": "remaining binding at 0.3 µM", "setting": "ASK2; sheet T-418", "value": 94, "unit": "%"},
      {"measurement": "remaining binding at 0.3 µM", "setting": "MAST1; sheet T-418", "value": 100, "unit": "%"},
      {"measurement": "remaining binding at 0.3 µM", "setting": "AXL; sheet T-418", "value": 73, "unit": "%"},
      {"measurement": "remaining binding at 0.3 µM", "setting": "PIK3CD; sheet T-418", "value": 99, "unit": "%"}
    ]},
    {"smiles": "Cc1ncccc1Oc1sc(C(N)=O)c2c1-c1c(cnn1C)CC2", "note": "[T-474, 1-methyl-8-((2-methylpyridin-3-yl)oxy)-4,5-dihydro-1H-thieno[3,4-g]indazole-6-carboxamide]", "values": [
      {"measurement": "remaining binding at 0.3 µM", "setting": "EGFR(G719S)", "value": 92, "unit": "%"},
      {"measurement": "remaining binding at 0.3 µM", "setting": "STK39", "value": 100, "unit": "%"},
      {"measurement": "remaining binding at 0.3 µM", "setting": "MYO3A", "value": 100, "unit": "%"},
      {"measurement": "remaining binding at 0.3 µM", "setting": "GCN2(Kin.Dom.2,S808G)", "value": 100, "unit": "%"},
      {"measurement": "remaining binding at 0.3 µM", "setting": "ITK", "value": 100, "unit": "%"},
      {"measurement": "remaining binding at 0.3 µM", "setting": "ACVRL1", "value": 87, "unit": "%"},
      {"measurement": "remaining binding at 0.3 µM", "setting": "MST2", "value": 50, "unit": "%"},
      {"measurement": "remaining binding at 0.3 µM", "setting": "LATS2", "value": 100, "unit": "%"},
      {"measurement": "remaining binding at 0.3 µM", "setting": "AKT3", "value": 97, "unit": "%"},
      {"measurement": "remaining binding at 0.3 µM", "setting": "MYO3B", "value": 84, "unit": "%"},
      {"measurement": "remaining binding at 0.3 µM", "setting": "RIOK2", "value": 87, "unit": "%"},
      {"measurement": "remaining binding at 0.3 µM", "setting": "NEK9", "value": 100, "unit": "%"},
      {"measurement": "remaining binding at 0.3 µM", "setting": "[1]", "value": 100, "unit": "%"},
      {"measurement": "remaining binding at 0.3 µM", "setting": "PKAC-beta", "value": 100, "unit": "%"},
      {"measurement": "remaining binding at 0.3 µM", "setting": "PIP5K1A", "value": 99, "unit": "%"},
      {"measurement": "remaining binding at 0.3 µM", "setting": "STK35", "value": 100, "unit": "%"},
      {"measurement": "remaining binding at 0.3 µM", "setting": "IRAK1", "value": 100, "unit": "%"},
      {"measurement": "remaining binding at 0.3 µM", "setting": "DCAMKL3", "value": 76, "unit": "%"},
      {"measurement": "remaining binding at 0.3 µM", "setting": "ASK2", "value": 100, "unit": "%"},
      {"measurement": "remaining binding at 0.3 µM", "setting": "MAST1", "value": 100, "unit": "%"},
      {"measurement": "remaining binding at 0.3 µM", "setting": "AXL", "value": 83, "unit": "%"},
      {"measurement": "remaining binding at 0.3 µM", "setting": "PIK3CD", "value": 88, "unit": "%"}
    ]}
  ]
}
